The target in experiment [1] is T1, interaction between PD-1 and PD-L1 (Homo sapiens, UniProt Q9NZQ7).
T1 construct: purchased Cisbio 64ICP01PEG or 64ICP01PEH
Nature of the experiment: PD1-PDL1 HTRF binding activity test. As to conditions: Cisbio PD-1/PD-L1 binding assay kit; percent inhibition vs DMSO. As for the experimental part: The effect of compounds of the examples of the present invention on the interaction between PD-1 and PD-L1 was determined by the PD-1/PD-L1 binding assay kit from Cisbio (#64ICP01PEG or 64ICP01PEH). The detailed experimental process was as follows:
1) Pre-diluted compound solution, 4 μL of Tag1-PD-L1 and 4 μL of Tag2-PD1 were added to each well of a 384-well plate;
2) After the mixture was incubated at room temperature for 15 min, 5 μL of anti-Tag1-Eu3+ antibody and 5 μL of anti-Tag2-XL665 antibody were then added;
3) After incubated for 2 hrs at room temperature or overnight at 4° C., plates were read on Envision of Perkin Elmer; and readings at 665 nm and 620 nm were recorded, and the ratio of the two readings was taken as a reading for each well;
4) The reading of each well after compound treatment was compared with the reading of DMSO treated wells to obtain the percent inhibition of the compound; and
5) IC50 values of compounds of the examples of the present invention were determined by non-linear regression analysis of percent inhibition at different compound concentrations.

In experiment [2] the target is T2, interaction between PD-1 and PD-L1 expressed on cell surfaces (Jurkat/NF-κB-luc/PD1 cells cocultured with Raji-PD-L1 cells) (Homo sapiens, UniProt Q9NZQ7).
T2 construct: expressed in transfected cells; host or cells: Raji cells (PD-L1); Jurkat cells (PD-1, NF-κB-luc reporter)
Nature of the experiment: Jurkat reporter gene cellular assay. Type of experiment: cell-based. As to conditions: OKT3 1 μg/mL stimulation, 6 hrs, activation fold vs DMSO. As for the experimental part:
The effect of compounds of the examples of the present invention on the interaction between PD-1 and PD-L1 expressed on cell surfaces, and the related influence on T cell functions, were determined by a Jurkat reporter gene cellular assay.
Briefly, the reporter gene plasmid of NF-κB-luc and the plasmid of human PD-1 were transfected into Jurkat cells to establish a stably transfected cell line capable of stably expressing both PD-1 and NF-κB-Luc reporter genes; the expression level of PD-1 on the cell surface was confirmed by flow cytometry; and the expression of the reporter gene was confirmed via the response of the reporter gene stimulated by OKT-3 and Raji cells.
In addition, the plasmid of human PD-L1 was transfected into Raji cells to obtain a cell line capable of stably expressing PD-L1. Jurkat/NF-κB-luc/PD1 cells and Raji-PD-L1 cells were then cocultured and stimulated with OKT-3. On this basis, the compounds were added, and the enhancement of the signal pathway of T cell activation by the inhibitory effect of the compounds on the interaction between PD-1 and PD-L1 was evaluated by readings of reporter gene responses. The specific experimental process was as follows:
1) 30 μL of compound or antibody solution was added to each well of a white 96-well plate (Corning, 3610) at different diluted concentrations, and 10 μL of OKT3 (Biolegend, 317326) was then added (the final concentration of OKT3: 1 μg/mL);
2) 20 μL of Raji-PD-L1 cell suspension was added to each well with 5*10^4 cells for each well, and was incubated in an incubator for 20 min;
3) 20 μL of Jurkat/NF-Kb-luc/PD-1 cell suspension was added to each well with 5*10^4 cells for each well, and was well mixed, and 6 hrs later, Bright-glo (Promega, E2620) was applied and plates were read on Envision;
4) The reading of each well treated with the compound was compared with the reading of each well treated with DMSO to obtain the activation fold of the compound; and
5) EC50 values of compounds of the examples of the present invention were determined by non-linear regression analysis of activation folds at different compound concentrations.
A general note: A reporter such as luciferase makes a cellular process visible.

Data on 10 compounds can be found in patent US20220380342A1, “BIPHENYL DERIVATIVES FOR BLOCKING PD-1/PD-L1 INTERACTION, PREPARATION METHOD THEREFOR AND USE THEREOF” (Abbisko Therapeutics Co., Ltd., priority 2019, published 2022).

T2 sequence (Q9NZQ7 19-290): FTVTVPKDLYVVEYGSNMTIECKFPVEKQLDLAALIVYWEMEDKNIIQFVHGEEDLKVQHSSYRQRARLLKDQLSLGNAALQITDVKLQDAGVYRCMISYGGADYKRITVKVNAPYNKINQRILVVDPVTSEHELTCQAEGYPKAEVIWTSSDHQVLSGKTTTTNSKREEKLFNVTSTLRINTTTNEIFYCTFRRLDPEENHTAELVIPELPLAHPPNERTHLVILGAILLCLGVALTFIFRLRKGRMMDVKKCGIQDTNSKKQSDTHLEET
T1 sequence (Q9NZQ7 19-238 limits assumed): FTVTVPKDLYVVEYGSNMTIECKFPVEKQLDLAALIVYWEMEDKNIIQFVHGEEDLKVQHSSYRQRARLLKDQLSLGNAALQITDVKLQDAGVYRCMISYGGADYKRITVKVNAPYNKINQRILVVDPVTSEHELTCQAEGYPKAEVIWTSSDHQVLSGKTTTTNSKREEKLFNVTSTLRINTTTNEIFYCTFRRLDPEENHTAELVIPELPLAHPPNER

For `Cc1c(NC(=O)c2cc(C3CC3)c(CNC(C)C)cn2)cccc1-c1cccc(NC(=O)c2cc(C3CC3)c(CN3CCCC[C@H]3C(=O)O)cn2)c1C` [Example 9, (S)-1-((4-cyclopropyl-6-((3′-(4-cyclopropyl-5-((isopropylamino)methyl)picolinamido)-2,2′-dimethyl-[1,1′-biphenyl]-3-yl)carbamoyl)pyridin-3-yl)methyl) piperidine-2-carboxylic acid], the IC50 (usually the concentration needed to halve the response being measured) in experiment [1] worked out at 5.1 nM. The EC50 (commonly the concentration needed to bring the measured effect to its halfway point) in experiment [2] amounted to 33.9 nM.
In the same order, the values of `Cc1c(NC(=O)c2cc(C3CC3)c(CNC3CCOCC3)cn2)cccc1-c1cccc(NC(=O)c2cc(C3CC3)c(CN3CCCC[C@H]3C(=O)O)cn2)c1C` [Example 24, (S)-1-((4-cyclopropyl-6-((3′-(4-cyclopropyl-5-(((tetrahydro-2H-pyran-4-yl)amino)methyl)picolinamido)-2,2′-dimethyl-[1,1′-biphenyl]-3-yl)carbamoyl)pyridin-3-yl)methyl)piperidine-2-carboxylic acid] are 0.91 nM and 52 nM.
On to `Cc1c(NC(=O)c2cc(C3CC3)c(CNCCO)cn2)cccc1-c1cccc(NC(=O)c2cc(C3CC3)c(CN3CCCC[C@H]3C(=O)O)cn2)c1C` [Example 1, (S)-1-((4-cyclopropyl-6-((3′-(4-cyclopropyl-5-(((2-hydroxyethyl)amino)methyl)picolinamido)-2,2′-dimethyl-[1,1′-biphenyl]-3-yl)carbamoyl)pyridin-3-yl)methyl)piperidine-2-carboxylic acid], for which the half-maximal inhibitory concentration (IC50) in experiment [1] was 1.07 nM. The compound further showed an EC50 in experiment [2] of 6.8 nM.
In the same order, the values of `Cc1c(NC(=O)c2cc(C3CC3)c(CN[C@H](CO)C(=O)O)cn2)cccc1-c1cccc(NC(=O)c2cc(C3CC3)c(CN3CC[C@@H](O)C3)cn2)c1C` [Example 53, ((4-cyclopropyl-6-((3′-(4-cyclopropyl-5-(((R)-3-hydroxypyrrolidin-1-yl)methyl)picolinamido)-2,2′-dimethyl-[1, 1′-biphenyl]-3-yl)carbamoyl)pyridin-3-yl)methyl)-D-serine] are 3.61 nM and 86.8 nM.
For `Cc1c(NC(=O)c2cc(C3CC3)c(CN3CCC[C@H]3CO)cn2)cccc1-c1cccc(NC(=O)c2cc(C3CC3)c(CN3CCCC[C@H]3C(=O)O)cn2)c1C` [Example 27, (S)-1-((4-cyclopropyl-6-((3′-(4-cyclopropyl-5-(((S)-2-(hydroxymethyl)pyrolidin-1-yl)methyl)picolinamido)-2, 2′-dimethyl-[1,1′-biphenyl]-3-yl)carbamoyl)pyridin-3-yl)methyl)piperidine-2-carboxylic acid] the same measures were 2.62 nM and 27.3 nM.
In the same order, the values of `Cc1c(NC(=O)c2cc(C3CC3)c(CN3CC[C@H](O)C3)cn2)cccc1-c1cccc(NC(=O)c2cc(C3CC3)c(CN3CCCC[C@H]3C(=O)O)cn2)c1C` [Example 14, (S)-1-((4-cyclopropyl-6-((3′-(4-cyclopropyl-5-(((S)-3-hydroxypyrrolidin-1-yl)methyl)picolinamido)-2,2′-dimethyl-[1,1′-biphenyl]-3-yl)carbamoyl)pyridin-3-yl)methyl)piperidine-2-carboxylic acid] are 1.76 nM and 8.2 nM.
`Cc1c(NC(=O)c2cc(C3CC3)c(CN3CC[C@@H](O)C3)cn2)cccc1-c1cccc(NC(=O)c2cc(C3CC3)c(CN3CCCC[C@H]3C(=O)O)cn2)c1C` [Example 13, (S)-1-((4-cyclopropyl-6-((3′-(4-cyclopropyl-5-(((R)-3-hydroxypyrrolidin-1-yl)methyl)picolinamido)-2,2′-dimethyl-[1,1′-biphenyl]-3-yl)carbamoyl)pyridin-3-yl)methyl)piperidine-2-carboxylic acid] registered an IC50 in experiment [1] of 1.48 nM. The half-maximal effective concentration (EC50) in experiment [2] was 11.8 nM.
For `Cc1c(NC(=O)c2cc(C3CC3)c(CN[C@H](C)CO)cn2)cccc1-c1cccc(NC(=O)c2cc(C3CC3)c(CN[C@H](CO)C(=O)O)cn2)c1C` [Example 38, ((4-cyclopropyl-6-((3′-(4-cyclopropyl-5-((((R)-1-hydroxypropan-2-yl)amino)methyl)picolinamido)-2,2-dimethyl-[1,1′-biphenyl]-3-yl)carbamoyl)pyridin-3-yl)methyl)-D-serine], in experiment [1], the IC50 turned out to be 0.67 nM. Besides, in experiment [2], the EC50 came out at 37.3 nM.
In the same order, the values of `Cc1c(NC(=O)c2cc(C3CC3)c(CNCCO)cn2)cccc1-c1cccc(NC(=O)c2cc(C3CC3)c(CN[C@H](CO)C(=O)O)cn2)c1C` [Example 35, ((4-cyclopropyl-6-((3′-(4-cyclopropyl-5-(((2-hydroxyethyl)amino)methyl)picolinamido)-2,2′-dimethyl-[1,1′-biphenyl]-3-yl)carbamoyl)pyridin-3-yl)methyl)-D-serine] are 1.95 nM and 28.6 nM.
In the same order, the values of `Cc1c(NC(=O)c2cc(C3CC3)c(CN[C@@H](CO)C(=O)O)cn2)cccc1-c1cccc(NC(=O)c2cc(C3CC3)c(CN3CCCC[C@H]3C(=O)O)cn2)c1C` [Example 32, (S)-1-((6-((3′-(5-((((S)-1-carboxy-2-hydroxyethyl)amino)methyl)-4-cyclopropylpicolinamido)-2,2′-dimethyl-[1,1′-biphenyl]-3-yl)carbamoyl)-4-cyclopropylpyridin-3-yl)methyl) piperidine-2-carboxylic acid] are 1.85 nM and 44.8 nM.
